By pIC50 is commonly meant the IC50 on a negative log10 scale, so that one unit is a factor of ten.

Here are results for 21 compounds from patent US10087188B2, “Benzamide imidazopyrazine Btk inhibitors” (MERCK SHARP & DOHME CORP., priority 2014, dated 2018).

The test system of one experiment is HeLa cells. Description: [3H] Adenosine uptake assay. The following applies: Homo sapiens, HeLa, accumulation of tritiated adenosine into HeLa cells; compound concentration range 10 μM to 0.032 nM; read-out: ADU inhibition IC50 (adenosine uptake inhibition potency). The format is cell-based. The method in brief: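 HeLa cells in HBSS + 5% FBS preincubated 30 min at ambient temperature with compound (0.25% DMSO), then [3H]adenosine (500 nM stock) added for 60 min. Uptake measured by scintillation proximity counting; IC50 from 4-parameter fit of counts vs log concentration.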

Experiment [1] deals with BTK enzyme (recombinant full-length BTK, hBTK) (Homo sapiens (Human), UniProt Q06187). Description: Btk enzyme activity assay, LANCE TR-FRET. The format is biochemical. Particulars: 50 pM hBTK, 2 μM biotin-A5-peptide, 25 μM ATP; 60 minute compound & enzyme incubation; read-out: BTK binding IC50. The procedure: Btk Enzyme Activity Assay Methods
BTK enzymatic activity was determined with the LANCE (Lanthanide Chelate Excite) TR-FRET (Time-resolved fluorescence resonance energy transfer) assay. […] After 60 minutes incubation with detection reagents, reaction plates were read on a PerkinElmer EnVision plate reader using standard TR-FRET protocol.

pIC50: −log10 of the molar value.

Chain of BTK enzyme (recombinant full-length BTK, hBTK) (Q06187 whole entry): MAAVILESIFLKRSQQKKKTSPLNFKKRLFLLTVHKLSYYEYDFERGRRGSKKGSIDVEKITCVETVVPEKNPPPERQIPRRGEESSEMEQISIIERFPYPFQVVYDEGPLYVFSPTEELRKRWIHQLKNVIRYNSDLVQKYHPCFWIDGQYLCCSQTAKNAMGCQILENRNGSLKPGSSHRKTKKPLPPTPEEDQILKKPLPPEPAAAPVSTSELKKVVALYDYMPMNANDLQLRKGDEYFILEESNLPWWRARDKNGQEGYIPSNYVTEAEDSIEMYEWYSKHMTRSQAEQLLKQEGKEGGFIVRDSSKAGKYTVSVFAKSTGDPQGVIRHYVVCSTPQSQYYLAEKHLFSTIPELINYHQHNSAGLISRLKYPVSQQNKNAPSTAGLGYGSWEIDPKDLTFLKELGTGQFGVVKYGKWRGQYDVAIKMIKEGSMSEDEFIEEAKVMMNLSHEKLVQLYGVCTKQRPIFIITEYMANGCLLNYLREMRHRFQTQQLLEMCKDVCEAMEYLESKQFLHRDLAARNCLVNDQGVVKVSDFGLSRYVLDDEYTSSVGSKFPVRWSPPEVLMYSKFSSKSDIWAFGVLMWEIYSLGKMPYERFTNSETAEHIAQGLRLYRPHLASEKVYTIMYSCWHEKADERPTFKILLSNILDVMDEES

Consider `CCOc1cc(C(=O)Nc2cc(C(F)(F)F)ccn2)ccc1-c1nc([C@@H]2CC[C@@](C(=O)O)(C(C)C)C2)n2ccnc(N)c12` [Example 60, (1S,3R)-3-[8-amino-1-(2-ethoxy-4-{[4-(trifluoromethyl)pyridin-2-yl]carbamoyl}phenyl)imidazo[1,5-a]pyrazin-3-yl]-1-(1-methylethyl) cyclopentane-carboxylic acid], for which the values for the pIC50 (with HeLa cells; in experiment [1]) were 5.00 and 8.12, respectively.
For `CCOc1cc(C(=O)Nc2cc(C(F)(F)F)ccn2)ccc1-c1nc([C@@H]2CC[C@](C(=O)O)(C(C)C)C2)n2ccnc(N)c12` [Example 61, (1R,3R)-3-[8-amino-1-(2-ethoxy-4-{[4-(trifluoromethyl)pyridin-2-yl]carbamoyl}phenyl)imidazo[1,5-a]pyrazin-3-yl]-1-(1-methylethyl) cyclopentane-carboxylic acid] the same measures were 5.00 and 8.62.
Regarding `CCOc1cc(C(=O)Nc2cc(C(F)(F)F)ccn2)ccc1-c1nc([C@H]2CC[C@](C(=O)O)(C(C)C)C2)n2ccnc(N)c12` [Example 62, (1R,3S)-3-[8-amino-1-(2-ethoxy-4-{[4-(trifluoromethyl)pyridin-2-yl]carbamoyl}phenyl)imidazo[1,5-a]pyrazin-3-yl]-1-(1-methylethyl) cyclopentane-carboxylic acid], the pIC50 with HeLa cells was 5.00; in experiment [1] it was 7.91.
In the case of `CCOc1cc(C(=O)Nc2cc(C(F)(F)F)ccn2)ccc1-c1nc([C@H]2CC[C@@](C(=O)O)(C(C)C)C2)n2ccnc(N)c12` [Example 63, (1S,3S)-3-[8-amino-1-(2-ethoxy-4-{[4-(trifluoromethyl)pyridin-2-yl]carbamoyl}phenyl)imidazo[1,5-a]pyrazin-3-yl]-1-(1-methylethyl) cyclopentane-carboxylic acid], the pIC50 in the experiment on HeLa cells was 5.07; in experiment [1], 9.24.
Regarding `CCOc1cc(C(=O)Nc2cc(C(F)(F)F)ccn2)ccc1-c1nc(C23CCC(C(=O)O)(CC2=O)C(=O)C3)n2ccnc(N)c12` (stereo not drawn) [Example 64, 4-[8-amino-1-(2-ethoxy-4-{[4-(trifluoromethyl)pyridin-2-yl]carbamoyl}phenyl)imidazo[1,5-a]pyrazin-3-yl]-2,5-dioxobicyclo[2.2.2] octane-1-carboxylic acid], the pIC50 was 5.00 in the experiment with HeLa cells and 8.59 in experiment [1].
Turning to `Nc1nccn2c(C34CCC(C(=O)O)(CC3)C4)nc(-c3ccc(C(=O)Nc4cc(C(F)(F)F)ccn4)cc3)c12` [Example 65, 4-[8-amino-1-(4-{[4-(trifluoromethyl)pyridin-2-yl]carbamoyl}phenyl)imidazo[1,5-a]pyrazin-3-yl]bicyclo[2.2.1] heptane-1-carboxylic acid], the pIC50 with HeLa cells is 5.22; in experiment [1], 9.22.
Regarding `CCOc1cc(C(=O)Nc2cc(C(F)(F)F)ccn2)ccc1-c1nc(C23CCC(C(=O)O)(CC2(F)F)C(F)(F)C3)n2ccnc(N)c12` (stereo not drawn) [Example 66, 4-[8-amino-1-(2-ethoxy-4-{[4-(trifluoromethyl)pyridin-2-yl]carbamoyl}phenyl)imidazo[1,5-a]pyrazin-3-yl]-2,2,5,5-tetrafluorobicyclo [2.2.2]octane-1-carboxylic acid], the figures for the pIC50 (with HeLa cells; in experiment [1]) were 5.00 and 9.33, respectively.
For `CCOc1cc(C(=O)Nc2cc(C(F)(F)F)ccn2)ccc1-c1nc(C23CCCC(C(=O)O)(CC2)CC3)n2ccnc(N)c12` [Example 67, 5-[8-amino-1-(2-ethoxy-4-{[4-(trifluoromethyl)pyridin-2-yl]carbamoyl}phenyl)imidazo[1,5-a]pyrazin-3-yl]bicyclo[3.2.2] nonane-1-carboxylic acid] the same measures were 5.31 and 9.41.
The corresponding values for `Nc1nccn2c(C34CCCC(C(=O)O)(CC3)CC4)nc(-c3ccc(C(=O)Nc4cc(C(F)(F)F)ccn4)cc3)c12` [Example 68, 5-[8-amino-1-(4-{[4-(trifluoromethyl)pyridin-2-yl]carbamoyl}phenyl)imidazo[1,5-a]pyrazin-3-yl]bicyclo[3.2.2] nonane-1-carboxylic acid] are 6.56 and 9.64.
As for `CC1(C)[C@H](c2nc(-c3ccc(C(=O)Nc4cc(C(F)(F)F)ccn4)cc3)c3c(N)nccn23)CC[C@]1(C)C(=O)O` [Example 69, (1S,3R)-3-[8-amino-1-(4-{[4-(trifluoromethyl)pyridin-2-yl]carbamoyl}phenyl)imidazo[1,5-a]pyrazin-3-yl]-1,2,2-trimethylcyclopentane carboxylic acid], the pIC50 is 5.97 in the experiment on HeLa cells and 9.43 in experiment [1].
For `CCOc1cc(C(=O)Nc2cc(C(F)(F)F)ccn2)ccc1-c1nc(C23C4C5C2C2C3C4C52C(=O)O)n2ccnc(N)c12` (stereo not drawn) [Example 71, 4-(8-amino-1-(2-ethoxy-4-((4-(trifluoromethyl)pyridin-2-yl)carbamoyl)phenyl)imidazo[1,5-a]pyrazin-3-yl)cubane-1-carboxylic acid] the same measures were 5.61 and 9.19.
Consider `CCOc1cc(C(=O)Nc2cc(C(F)(F)F)ccn2)ccc1-c1nc([C@H]2CC[C@@](C)(C(=O)O)C2(C)C)n2ccnc(N)c12` [Example 72, (1R,3S)-3-[8-amino-1-(2-ethoxy-4-{[4-(trifluoromethyl)pyridin-2-yl]carbamoyl}phenyl)imidazo[1,5-a]pyrazin-3-yl]-1,2,2-trimethylcyclopentane carboxylic acid], for which the pIC50 is 5.50 in the experiment on HeLa cells and 9.21 in experiment [1].
The corresponding values for `CCOc1cc(C(=O)Nc2cc(C(F)(F)F)ccn2)ccc1-c1nc([C@]23CC[C@](C(=O)O)(CC2O)C(O)C3)n2ccnc(N)c12` (stereo partly drawn) [Example 73, (1S,4R)-4-[8-amino-1-(2-ethoxy-4-{[4-(trifluoromethyl)pyridin-2-yl]carbamoyl}phenyl)imidazo[1,5-a]pyrazin-3-yl]-2,5-dihydroxybicyclo [2.2.2]octane-1-carboxylic acid] are 5.44 and 8.06.
Turning to `Nc1nccn2c(C34C5C6C3C3C4C5C63C(=O)O)nc(-c3ccc(C(=O)Nc4cc(C5CC5)ccn4)cc3F)c12` (stereo not drawn) [Example 74, 4-(8-amino-1-(4-((4-cyclopropylpyridin-2-yl)carbamoyl)-2-fluorophenyl)imidazo [1,5-a]pyrazin-3-yl)cubane-1-carboxylic acid], the pIC50 in the experiment with HeLa cells was 6.95; in experiment [1], 9.27.
The corresponding values for `COc1cc(C(=O)Nc2cc(C(F)(F)F)ccn2)ccc1-c1nc(C23C4C5C2C2C3C4C52C(=O)O)n2ccnc(N)c12` (stereo not drawn) [Example 75, 4-(8-amino-1-(2-methoxy-4-((4-(trifluoromethyl)pyridin-2-yl)carbamoyl)phenyl)imidazo[1,5-a]pyrazin-3-yl)cubane-1-carboxylic acid] are 6.13 and 9.25.
The corresponding values for `N#Cc1ccnc(NC(=O)c2ccc(-c3nc(C45C6C7C4C4C5C6C74C(=O)O)n4ccnc(N)c34)c(F)c2)c1` (stereo not drawn) [Example 76, 4-(8-amino-1-(4-((4-cyanopyridin-2-yl)carbamoyl)-2-fluorophenyl)imidazo [1,5-a]pyrazin-3-yl)cubane-1-carboxylic acid] are 6.18 and 9.39.
With `CC1(C)[C@@H](c2nc(-c3ccc(C(=O)Nc4cc(C(F)(F)F)ccn4)cc3)c3c(N)nccn23)CC[C@@]1(C)C(=O)O` [Example 77, (1R,3S)-3-[8-amino-1-(4-{[4-(trifluoromethyl)pyridin-2-yl]carbamoyl}phenyl)imidazo[1,5-a]pyrazin-3-yl]-1,2,2-trimethylcyclopentane carboxylic acid], the figures for the pIC50 (with HeLa cells; in experiment [1]) were 5.41 and 8.34, respectively.
The corresponding values for `CCOc1cc(C(=O)Nc2cc(C(F)(F)F)ccn2)ccc1-c1nc(C2(C)CCC(C)(C(=O)O)CC2)n2ccnc(N)c12` (stereo not drawn) [Example 78, 4-[8-amino-1-(2-ethoxy-4-{[4-(trifluoromethyl)pyridin-2-yl]carbamoyl}phenyl)imidazo[1,5-a]pyrazin-3-yl]-1,4-dimethylcyclohexane-carboxylic acid] are 5.29 and 8.89.
For `C[C@@]1(C(=O)O)CC[C@@](C)(c2nc(-c3ccc(C(=O)Nc4cc(C(F)(F)F)ccn4)cc3)c3c(N)nccn23)C1` [Example 79, (1R,3R)-3-[8-amino-1-(4-{[4-(trifluoromethyl)pyridin-2-yl]carbamoyl}phenyl)imidazo[1,5-a]pyrazin-3-yl]-1,3-dimethylcyclopentane carboxylic acid] the same measures were 5.80 and 9.14.
`C[C@]1(C(=O)O)CC[C@@](C)(c2nc(-c3ccc(C(=O)Nc4cc(C(F)(F)F)ccn4)cc3)c3c(N)nccn23)C1` [Example 80, (1S,3R)-3-[8-amino-1-(4-{[4-(trifluoromethyl)pyridin-2-yl]carbamoyl}phenyl)imidazo[1,5-a]pyrazin-3-yl]-1,3-dimethylcyclopentane carboxylic acid]: the values for the negative-log IC50 (pIC50) (with HeLa cells; in experiment [1]) were 5.02 and 8.62, respectively.
The corresponding values for `C[C@@]1(C(=O)O)CC[C@](C)(c2nc(-c3ccc(C(=O)Nc4cc(C(F)(F)F)ccn4)cc3)c3c(N)nccn23)C1` [Example 81, (1R.3S)-3-[8-amino-1-(4-{[4-(trifluoromethyl)pyridin-2-yl]carbamoyl}phenyl)imidazo[1,5-a]pyrazin-3-yl]-1,3-dimethylcyclopentane carboxylic acid] are 5.00 and 8.09.
